The term IC50 denotes the midpoint of a concentration-inhibition curve.

The structures appear in SMILES notation. Activity calls are given as the source filed them. The calls are words filed in the database; no cut-off is given here. Bounds are passed on as bounds.

Assay [1] is described as follows: Cytotoxicity against human DU145 cells after 48 hrs by MTT assay. It counts as functional, cell-based. Conditions: DU-145, 48 h. (In general: Tetrazolium assays rely on reduction of a dye to a coloured formazan, in cell work by metabolically active cells.)
Assay [2] is described as follows: Cytotoxicity against human BT549 cells after 48 hrs by MTT assay. Conditions: BT-549, 48 h. It counts as functional, cell-based.
Assay [3] can be described thus: Cytotoxicity against human RWPE1 cells after 48 hrs by MTT assay. It counts as cell-based. Particulars: RWPE-1, 48 h.
The nature of assay [4]: Cytotoxicity against human PC3 cells after 48 hrs by MTT assay. It counts as functional, cell-based. Conditions: PC-3, 48 h.
A further assay relates to MDA-MB-231. Put plainly: cells. Conditions: Homo sapiens, MDA-MB-231, 48 h.
Assay [5] in a line: Cytotoxicity against human PC3 cells assessed as cell viability at 2 uM after 48 hrs by trypan blue assay. It counts as functional. Conditions: PC-3, 48 h, read-out: Activity.
Assay [6] in a line: Cytotoxicity against human PC3 cells assessed as cell viability at 4 uM after 48 hrs by trypan blue assay. Particulars: PC-3, 48 h, read-out: Activity. It counts as functional.
Assay [7] deals with PC-3. Put plainly: Cytotoxicity against human PC3 cells assessed as cell detachment at 1 to 4 uM after 48 hrs by phase contrast microscopic analysis relative to vehicle control. It counts as functional, cell-based.
Assay [8] has as its system PC-3. Put plainly: Cytotoxicity against human PC3 cells assessed as cell shrinkage at 1 to 4 uM after 48 hrs by phase contrast microscopic analysis relative to vehicle control. It is filed as functional, cell-based.
Assay [9] can be described thus: Antimigratory activity in human PC3 cells at 1 uM after 24 hrs by wound healing assay (reference value: 43.4%). It is filed as functional, PC-3.
The nature of assay [10]: Antimigratory activity in human PC3 cells at 2 uM after 24 hrs by wound healing assay (reference value: 43.4%). It counts as functional, PC-3.
Assay [11] can be described thus: Antimigratory activity in human PC3 cells at 4 uM after 24 hrs by wound healing assay (reference value: 43.4%). It is filed as functional, PC-3.
Assay [12] relates to PC-3. Put plainly: Antimigratory activity in human PC3 cells at 1 to 2 uM after 48 hrs by wound healing assay. It counts as functional, cell-based.
Assay [13] has as its system PC-3. Put plainly: Antimigratory activity in human PC3 cells after 24 to 48 hrs by assay. It is filed as functional, cell-based.
Assay [14] can be described thus: Cell cycle arrest in human PC3 cells assessed as accumulation at G0/G1 phase at 1 uM after 24 hrs by propidium iodide staining-based flow cytometry (reference value: 71.7%). It counts as functional. Conditions: PC-3.
Assay [15] is described as follows: Cell cycle arrest in human PC3 cells assessed as accumulation at S phase at 1 uM after 24 hrs by propidium iodide staining-based flow cytometry (reference value: 9.3%). It counts as functional. Particulars: PC-3.
Assay [16] is described as follows: Cell cycle arrest in human PC3 cells assessed as accumulation at G2/M phase at 1 uM after 24 hrs by propidium iodide staining-based flow cytometry (reference value: 19.2%). It is filed as functional. Particulars: PC-3. On the technique in general: In flow cytometry, cells or beads pass a laser one at a time.
The nature of assay [17]: Cell cycle arrest in human PC3 cells assessed as accumulation at G0/G1 phase at 2 uM after 24 hrs by propidium iodide staining-based flow cytometry (reference value: 71.7%). It counts as functional. Conditions: PC-3.
Assay [18] is described as follows: Cell cycle arrest in human PC3 cells assessed as accumulation at S phase at 2 uM after 24 hrs by propidium iodide staining-based flow cytometry (reference value: 9.3%). It is filed as functional. Conditions: PC-3.
Assay [19] in a line: Cell cycle arrest in human PC3 cells assessed as accumulation at G2/M phase at 2 uM after 24 hrs by propidium iodide staining-based flow cytometry (reference value: 19.2%). Particulars: PC-3. It is filed as functional.
Assay [20] is described as follows: Cell cycle arrest in human PC3 cells assessed as accumulation at G0/G1 phase at 4 uM after 24 hrs by propidium iodide staining-based flow cytometry (reference value: 71.7%). Conditions: PC-3. It is filed as functional.
Assay [21] can be described thus: Cell cycle arrest in human PC3 cells assessed as accumulation at S phase at 4 uM after 24 hrs by propidium iodide staining-based flow cytometry (reference value: 9.3%). It is filed as functional. Particulars: PC-3.
Assay [22] is described as follows: Cell cycle arrest in human PC3 cells assessed as accumulation at G2/M phase at 4 uM after 24 hrs by propidium iodide staining-based flow cytometry (reference value: 19.2%). It counts as functional. Particulars: PC-3.
A short description of assay [23]: Cell cycle arrest in human PC3 cells assessed as accumulation at G0/G1 phase after 24 hrs by propidium iodide staining-based flow cytometry. Particulars: PC-3. It counts as functional.
Assay [24] has as its system PC-3. Put plainly: Antimigratory activity in human PC3 cells assessed as disruption of F-actin formation around nucleus at 1 to 4 uM after 12 hrs by rhodamine phalloidin/Hoechst […] staining-based confocal microscopic analysis. It counts as functional, cell-based.
Assay [25] concerns PC-3. Put plainly: Induction of apoptosis in human PC3 cells after 24 hrs by Annexin V/FITC staining-based flow cytometric analysis. It counts as functional, cell-based.
The test system of assay [26] is PC-3. Put plainly: Induction of apoptosis in human PC3 cells assessed as chromatin condensation after 24 hrs by Hoechst […] staining-based confocal fluorescence microscopic analysis. It is filed as functional, cell-based.
Assay [27] relates to PC-3. Put plainly: Induction of apoptosis in human PC3 cells assessed as nuclear fragmentation after 24 hrs by Hoechst […] staining-based confocal fluorescence microscopic analysis. It counts as functional, cell-based.
Assay [28] is described as follows: Disruption of mitochondrial membrane potential in human PC3 cells at 1 to 4 uM after 24 hrs by Rhodamine123 staining-based spectrofluorimetric analysis relative to control. It is filed as functional, PC-3.
Assay [29] relates to PC-3. Put plainly: Disruption of mitochondrial membrane potential in human PC3 cells after 24 hrs by Rhodamine123 staining-based spectrofluorimetric analysis relative to control. It counts as functional, cell-based.
Assay [30] relates to PC-3. Put plainly: Increase in intracellular Ca2+ level in human PC3 cells after 24 hrs by Fura-2/AM staining-based fluorescence microscopic analysis. It counts as functional, cell-based.
Assay [31] deals with PC-3. Put plainly: Induction of apoptosis in human PC3 cells assessed as late apoptotic cells at 1 uM after 24 hrs by Annexin V/FITC staining-based flow cytometric analysis (reference value: 4.3%). It counts as functional.
Assay [32] concerns PC-3. Put plainly: Induction of apoptosis in human PC3 cells assessed as early apoptotic cells at 1 uM after 24 hrs by Annexin V/FITC staining-based flow cytometric analysis (reference value: 5.1%). It counts as functional.
For assay [33], the system named is PC-3. Put plainly: Induction of apoptosis in human PC3 cells assessed as live cells at 1 uM after 24 hrs by Annexin V/FITC staining-based flow cytometric analysis (reference value: 85.7%). It is filed as functional.
Assay [34] has as its system PC-3. Put plainly: Induction of apoptosis in human PC3 cells assessed as necrotic cells at 1 uM after 24 hrs by Annexin V/FITC staining-based flow cytometric analysis (reference value: […]). It is filed as functional.
Assay [35] concerns PC-3. Put plainly: Induction of apoptosis in human PC3 cells assessed as late apoptotic cells at 2 uM after 24 hrs by Annexin V/FITC staining-based flow cytometric analysis (reference value: 4.3%). It counts as functional.
Assay [36] concerns PC-3. Put plainly: Induction of apoptosis in human PC3 cells assessed as early apoptotic cells at 2 uM after 24 hrs by Annexin V/FITC staining-based flow cytometric analysis (reference value: 5.1%). It is filed as functional.
Assay [37] concerns PC-3. Put plainly: Induction of apoptosis in human PC3 cells assessed as live cells at 2 uM after 24 hrs by Annexin V/FITC staining-based flow cytometric analysis (reference value: 85.7%). It counts as functional.
Assay [38] deals with PC-3. Put plainly: Induction of apoptosis in human PC3 cells assessed as necrotic cells at 2 uM after 24 hrs by Annexin V/FITC staining-based flow cytometric analysis (reference value: […]). It counts as functional.
The subject of assay [39] is PC-3. Put plainly: Induction of apoptosis in human PC3 cells assessed as late apoptotic cells at 4 uM after 24 hrs by Annexin V/FITC staining-based flow cytometric analysis (reference value: 4.3%). It is filed as functional.
The test system of assay [40] is PC-3. Put plainly: Induction of apoptosis in human PC3 cells assessed as early apoptotic cells at 4 uM after 24 hrs by Annexin V/FITC staining-based flow cytometric analysis (reference value: 5.1%). It counts as functional.
Assay [41] has as its system PC-3. Put plainly: Induction of apoptosis in human PC3 cells assessed as live cells at 4 uM after 24 hrs by Annexin V/FITC staining-based flow cytometric analysis (reference value: 85.7%). It counts as functional.
Assay [42] concerns PC-3. Put plainly: Induction of apoptosis in human PC3 cells assessed as necrotic cells at 4 uM after 24 hrs by Annexin V/FITC staining-based flow cytometric analysis (reference value: […]). It counts as functional.
For assay [43], the system named is PC-3. Put plainly: Induction of apoptosis in human PC3 cells assessed as caspase 3 activation after 24 hrs by Western blot analysis. It is filed as functional, cell-based. For orientation: Immunoblotting shows a protein as a band on a membrane.
Assay [44] deals with PC-3. Put plainly: Induction of apoptosis in human PC3 cells assessed as downregulation of Bcl2 expression after 24 hrs by Western blot analysis. It is filed as functional, cell-based.
A short description of assay [45]: Induction of apoptosis in human PC3 cells assessed as upregulation of Bax expression after 24 hrs by Western blot analysis. It is filed as functional, cell-based. Particulars: PC-3.

Description for MDA-MB-231: Cytotoxicity against human MDA-MB-231 cells after 48 hrs by MTT assay

For `COc1cc(/C=C2\C(=O)Nc3ccccc32)ccc1OCC(=O)N1CCCCC1`, the IC50 in assay [1] is 6.63 µM; in assay [2], > 20 µM; in [3] it was 78.1 µM; in assay [4] it was 6.97 µM; with MDA-MB-231, 19.3 µM.

As to `COc1cc(/C=C2\C(=O)Nc3ccccc32)ccc1OCC(=O)N1CCCC1`, the IC50 (in [1]; in [2]; in assay [4]; in the assay with MDA-MB-231) was > 20 µM in each case.

Take `COc1cc(/C=C2\C(=O)Nc3ccccc32)ccc1OCC(=O)N1CC(C)OC(C)C1` (centres undefined): the half-maximal inhibitory concentration (IC50) (in assay [1]; in [2]; in assay [4]; in the assay on MDA-MB-231) was > 20 µM each time.

As for `COc1cc(/C=C2\C(=O)Nc3ccccc32)ccc1OCC(=O)N1CCc2ccccc21`, the IC50 was 1.94 µM in assay [1]; 7.17 µM in assay [2]; > 100 µM in [3]; 1.89 µM in [4]; 6.35 µM with MDA-MB-231. Besides, in [5], the viability at 2 µM is 53%. Also, the viability at 4 µM in assay [6] came to 45%. Also, the outcome in the assay with PC-3 [7], in the assay with PC-3 [8], in the assay on PC-3 [12] and with PC-3 [24] was Active. In addition, the Activity in [9] is 37.3%; in assay [10], 29.4%; in [11], 7.3%; in the assay on PC-3 [13], “Dose-dependent effect”; in assay [14], 39.1%; in [15] it was 18.5%. In addition, the Activity in assay [16] turned out to be 41.6%; in assay [17], 20.8%; in assay [18], 27.6%; in assay [19], 49.8%; in assay [20], 19.4%; in [21] it was 24.2%. Also, the Activity in [22] is 55.7%; in assay [23], “Dose-dependent effect”; in the assay on PC-3 [25], “Dose-dependent effect”; in the assay with PC-3 [26], “Dose-dependent effect”; with PC-3 [27], “Dose-dependent effect”; in assay [28] it was 19%. Besides, the Activity result was “Dose-dependent effect” in the assay with PC-3 [29]; “Dose-dependent effect” in the assay on PC-3 [30]; 8.3% in the assay on PC-3 [31]; 13.6% with PC-3 [32]; 77.7% with PC-3 [33]; 0.4% with PC-3 [34]. For the same compound, the Activity in the assay with PC-3 [35] was 10.2%; in the assay on PC-3 [36], 17.6%; with PC-3 [37], 70.9%; in the assay with PC-3 [38] it was 1.3%; in the assay with PC-3 [39] it was 22.4%; in the assay with PC-3 [40] it was 15.8%. The Activity in the assay on PC-3 [41] is 57.4%; with PC-3 [42] it was 4.4%; in the assay with PC-3 [43], “Dose-dependent effect”; in the assay on PC-3 [44], “Dose-dependent effect”; in assay [45] it was “Dose-dependent effect”.

As to `CCN(CC)CCNC(=O)c1c(C)[nH]c(/C=C2\C(=O)Nc3ccc(F)cc32)c1C` [SUNITINIB], the IC50 in [1] was 16.4 µM; in assay [2], 15.5 µM; in [3], 23 µM; in assay [4], 19.6 µM; in the assay on MDA-MB-231 it was 7.4 µM.

On to `COc1cc(/C=C2\C(=O)Nc3ccccc32)ccc1OCC(=O)N1CCOCC1`, for which the IC50 in [1] came to 5.75 µM; in assay [2], 8.87 µM; in [3], 81.8 µM; in assay [4] it was 5.97 µM; in the assay with MDA-MB-231, 9.78 µM.

These data come from ChEMBL document CHEMBL3822392, “Design, synthesis and apoptosis inducing effect of novel (Z)-3-(3'-methoxy-4'-(2-amino-2-oxoethoxy)-benzylidene)indolin-2-ones as potential antitumour agents” (Eur J Med Chem, 2016).
